Measured values as given in patent US10344060B2 (priority 2013, dated 2019).
“And” between values parts separate entries of the source, which are not always exact repeats. Identical values can stand only once.

Key:
[1] = molecular target: hNav1.7 (Homo sapiens, UniProt Q15858); test: cell-based; conditions: ratio of IonWorks Quattro IC50 values
[2] = molecular target: hNav1.4 (Homo sapiens, UniProt P35499); test: cell-based; type: cell-based; conditions: ratio of IonWorks Quattro IC50 values
Sequence of hNav1.4 (P35499 whole entry): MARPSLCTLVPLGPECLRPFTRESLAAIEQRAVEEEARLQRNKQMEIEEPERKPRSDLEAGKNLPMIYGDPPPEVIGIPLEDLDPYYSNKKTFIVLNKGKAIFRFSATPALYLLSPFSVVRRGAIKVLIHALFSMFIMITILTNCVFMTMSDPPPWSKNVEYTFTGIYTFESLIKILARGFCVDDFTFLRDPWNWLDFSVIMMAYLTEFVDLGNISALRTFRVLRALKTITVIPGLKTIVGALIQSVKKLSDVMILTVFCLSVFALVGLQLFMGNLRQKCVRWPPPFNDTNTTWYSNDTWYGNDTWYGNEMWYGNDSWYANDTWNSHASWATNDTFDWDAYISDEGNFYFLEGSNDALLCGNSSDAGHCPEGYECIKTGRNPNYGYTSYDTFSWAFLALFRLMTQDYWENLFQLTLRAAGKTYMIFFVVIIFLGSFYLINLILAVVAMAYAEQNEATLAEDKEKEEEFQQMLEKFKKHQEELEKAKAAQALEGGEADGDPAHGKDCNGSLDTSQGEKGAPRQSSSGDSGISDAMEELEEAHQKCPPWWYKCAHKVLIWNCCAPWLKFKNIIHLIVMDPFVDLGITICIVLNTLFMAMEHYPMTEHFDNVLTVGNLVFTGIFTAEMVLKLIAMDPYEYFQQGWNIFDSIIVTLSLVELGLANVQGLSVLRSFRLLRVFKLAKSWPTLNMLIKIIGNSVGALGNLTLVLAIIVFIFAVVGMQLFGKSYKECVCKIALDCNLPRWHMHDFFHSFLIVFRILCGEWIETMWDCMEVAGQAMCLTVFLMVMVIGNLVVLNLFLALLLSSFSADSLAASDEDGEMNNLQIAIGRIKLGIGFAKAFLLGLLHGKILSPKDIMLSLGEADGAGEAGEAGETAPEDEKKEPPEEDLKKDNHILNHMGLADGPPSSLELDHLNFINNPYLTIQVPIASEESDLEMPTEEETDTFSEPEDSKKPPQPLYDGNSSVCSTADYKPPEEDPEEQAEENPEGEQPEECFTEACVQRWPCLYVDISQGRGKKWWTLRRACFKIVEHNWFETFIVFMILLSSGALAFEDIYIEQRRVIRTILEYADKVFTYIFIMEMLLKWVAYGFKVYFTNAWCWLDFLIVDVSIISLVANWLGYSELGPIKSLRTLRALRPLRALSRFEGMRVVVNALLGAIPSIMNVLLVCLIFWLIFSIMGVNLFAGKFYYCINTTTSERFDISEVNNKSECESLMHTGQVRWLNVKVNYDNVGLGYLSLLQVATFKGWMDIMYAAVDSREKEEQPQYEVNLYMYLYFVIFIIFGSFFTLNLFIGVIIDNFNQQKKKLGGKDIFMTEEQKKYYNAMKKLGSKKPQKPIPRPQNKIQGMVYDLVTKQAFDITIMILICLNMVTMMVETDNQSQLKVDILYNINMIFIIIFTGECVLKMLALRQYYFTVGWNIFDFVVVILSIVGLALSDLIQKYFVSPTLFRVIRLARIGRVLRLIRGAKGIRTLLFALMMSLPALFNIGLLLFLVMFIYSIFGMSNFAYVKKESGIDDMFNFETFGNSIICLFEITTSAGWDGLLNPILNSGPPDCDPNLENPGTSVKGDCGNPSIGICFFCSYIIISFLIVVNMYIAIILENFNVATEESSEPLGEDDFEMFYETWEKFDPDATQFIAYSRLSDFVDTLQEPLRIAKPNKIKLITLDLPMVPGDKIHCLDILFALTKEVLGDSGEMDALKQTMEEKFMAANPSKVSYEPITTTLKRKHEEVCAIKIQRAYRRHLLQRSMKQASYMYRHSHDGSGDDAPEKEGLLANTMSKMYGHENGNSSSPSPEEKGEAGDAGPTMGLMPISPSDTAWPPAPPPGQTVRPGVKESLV

Sequence of hNav1.7 (Q15858 whole entry): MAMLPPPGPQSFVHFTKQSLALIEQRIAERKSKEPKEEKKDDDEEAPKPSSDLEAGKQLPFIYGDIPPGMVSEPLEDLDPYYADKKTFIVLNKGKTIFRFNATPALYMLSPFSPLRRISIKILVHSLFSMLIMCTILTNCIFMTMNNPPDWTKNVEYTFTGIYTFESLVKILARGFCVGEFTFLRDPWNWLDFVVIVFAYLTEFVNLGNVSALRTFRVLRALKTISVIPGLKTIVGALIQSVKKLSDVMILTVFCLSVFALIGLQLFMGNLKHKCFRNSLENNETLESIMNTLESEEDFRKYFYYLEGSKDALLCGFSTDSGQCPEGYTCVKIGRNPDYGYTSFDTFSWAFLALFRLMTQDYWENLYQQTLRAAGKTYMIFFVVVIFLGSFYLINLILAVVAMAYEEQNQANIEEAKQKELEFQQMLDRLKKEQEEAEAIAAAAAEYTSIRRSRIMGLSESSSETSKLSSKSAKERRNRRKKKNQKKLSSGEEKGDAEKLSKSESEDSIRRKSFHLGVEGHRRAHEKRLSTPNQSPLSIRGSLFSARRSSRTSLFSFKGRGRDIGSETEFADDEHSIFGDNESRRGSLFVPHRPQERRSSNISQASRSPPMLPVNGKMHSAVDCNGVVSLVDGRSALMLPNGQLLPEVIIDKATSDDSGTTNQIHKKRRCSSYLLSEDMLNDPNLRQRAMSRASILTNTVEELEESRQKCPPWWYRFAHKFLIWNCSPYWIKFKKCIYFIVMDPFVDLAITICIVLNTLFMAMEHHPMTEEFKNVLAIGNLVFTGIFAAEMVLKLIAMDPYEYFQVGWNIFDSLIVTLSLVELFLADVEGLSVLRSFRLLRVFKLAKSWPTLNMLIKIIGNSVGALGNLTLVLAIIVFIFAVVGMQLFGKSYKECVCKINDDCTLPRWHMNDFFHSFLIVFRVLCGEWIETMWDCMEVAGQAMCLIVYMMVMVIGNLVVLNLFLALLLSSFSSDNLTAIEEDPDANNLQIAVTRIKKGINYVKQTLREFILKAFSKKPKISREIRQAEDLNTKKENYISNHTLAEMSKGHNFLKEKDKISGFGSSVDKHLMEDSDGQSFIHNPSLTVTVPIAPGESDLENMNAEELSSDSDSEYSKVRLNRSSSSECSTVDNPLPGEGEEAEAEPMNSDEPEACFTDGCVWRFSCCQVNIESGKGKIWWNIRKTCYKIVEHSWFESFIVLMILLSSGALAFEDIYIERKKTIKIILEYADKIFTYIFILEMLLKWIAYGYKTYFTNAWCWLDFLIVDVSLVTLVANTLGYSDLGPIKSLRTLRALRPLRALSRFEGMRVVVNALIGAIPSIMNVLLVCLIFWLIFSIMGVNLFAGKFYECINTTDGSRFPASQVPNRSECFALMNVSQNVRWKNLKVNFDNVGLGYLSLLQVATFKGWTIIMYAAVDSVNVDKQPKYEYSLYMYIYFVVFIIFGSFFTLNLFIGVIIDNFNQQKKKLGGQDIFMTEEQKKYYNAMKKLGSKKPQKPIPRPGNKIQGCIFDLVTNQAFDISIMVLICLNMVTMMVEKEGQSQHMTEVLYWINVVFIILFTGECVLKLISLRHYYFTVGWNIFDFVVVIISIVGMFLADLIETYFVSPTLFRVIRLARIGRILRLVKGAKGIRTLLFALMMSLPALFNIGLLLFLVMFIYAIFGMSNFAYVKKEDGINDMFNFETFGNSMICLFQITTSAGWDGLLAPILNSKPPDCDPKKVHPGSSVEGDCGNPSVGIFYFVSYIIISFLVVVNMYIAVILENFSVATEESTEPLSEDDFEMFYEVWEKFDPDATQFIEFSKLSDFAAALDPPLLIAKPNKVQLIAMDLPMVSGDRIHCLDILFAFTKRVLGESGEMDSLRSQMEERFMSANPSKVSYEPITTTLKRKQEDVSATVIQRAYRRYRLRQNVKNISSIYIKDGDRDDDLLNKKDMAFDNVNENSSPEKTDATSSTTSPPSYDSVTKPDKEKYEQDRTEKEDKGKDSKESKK

Compound | Nav1.4/Nav1.7 ([1]; Nav1.4 over Nav1.7) | also measured
CC[C@H](C)[C@H](NC(=O)[C@H](Cc1ccc(O)cc1)NC(=O)[C@H](CCCCN)NC(=O)[C@H](CCCNC(=N)N)NC(=O)[C@@H]1CSSC[C@@H]2NC(=O)[C@H](C)NC(=O)[C@H](CCCNC(=N)N)NC(=O)[C@H](CCCCN)NC(=O)[C@H](CO)NC(=O)[C@H](CC(=O)O)NC(=O)[C@@H]3CSSC[C@H](NC(=O)[C@H](CCCNC(=N)N)NC(=O)[C@H](CC(C)C)NC(=O)CNC(=O)[C@H](CCC(=O)O)NC(=O)[C@H](CSSC[C@H](NC(=O)[C@@H](N)CCC(=O)O)C(=O)N[C@@H](CCC(N)=O)C(=O)N[C@@H](CCCCN)C(=O)N[C@@H](Cc4c[nH]c5ccccc45)C(=O)N[C@@H](CCSC)C(=O)N[C@@H](Cc4c[nH]c5ccccc45)C(=O)N[C@@H]([C@@H](C)O)C(=O)N3)NC2=O)C(=O)N[C@@H](CCCCN)C(=O)N[C@@H](CC(C)C)C(=O)N[C@@H](Cc2c[nH]c3ccccc23)C(=O)N1)C(N)=O [compound 278] |  | Nav1.4/Nav1.7 ([1]; Table 8): 16
CC[C@H](C)[C@H](NC(=O)[C@H](CC(=O)O)NC(=O)[C@H](CCCCN)NC(=O)[C@H](CCCNC(=N)N)NC(=O)[C@@H]1CSSC[C@@H]2NC(=O)[C@H](C)NC(=O)[C@H](CCCNC(=N)N)NC(=O)[C@H](CCCCN)NC(=O)[C@H](CO)NC(=O)[C@H](CC(=O)O)NC(=O)[C@@H]3CSSC[C@H](NC(=O)[C@H](CCC(=O)O)NC(=O)[C@H](CC(C)C)NC(=O)CNC(=O)[C@H](CCC(=O)O)NC(=O)[C@H](CSSC[C@H](NC(=O)[C@@H](N)Cc4ccc(O)cc4)C(=O)N[C@@H](CCC(N)=O)C(=O)N[C@@H](CCCCN)C(=O)N[C@@H](Cc4c[nH]c5ccccc45)C(=O)N[C@@H](CCSC)C(=O)N[C@@H](Cc4c[nH]c5ccccc45)C(=O)N[C@@H]([C@@H](C)O)C(=O)N3)NC2=O)C(=O)N[C@@H](CCCCN)C(=O)N[C@@H](CC(C)C)C(=O)N[C@@H](Cc2c[nH]c3ccccc23)C(=O)N1)C(N)=O [compound 128] | 4 | 
CC[C@H](C)[C@H](NC(=O)[C@@H](NC(=O)[C@H](CCCCN)NC(=O)[C@H](CCCNC(=N)N)NC(=O)[C@@H]1CSSC[C@@H]2NC(=O)[C@H](C)NC(=O)[C@H](CCCNC(=N)N)NC(=O)[C@H](CCCCN)NC(=O)[C@H](CO)NC(=O)[C@H](CC(=O)O)NC(=O)[C@@H]3CSSC[C@H](NC(=O)[C@H](C(C)C)NC(=O)[C@H](CC(C)C)NC(=O)CNC(=O)[C@H](CCC(=O)O)NC(=O)[C@H](CSSC[C@H](NC(=O)[C@@H](N)Cc4ccc(O)cc4)C(=O)N[C@@H](CCC(N)=O)C(=O)N[C@@H](CCCCN)C(=O)N[C@@H](Cc4c[nH]c5ccccc45)C(=O)N[C@@H](CCSC)C(=O)N[C@@H](Cc4c[nH]c5ccccc45)C(=O)N[C@@H]([C@@H](C)O)C(=O)N3)NC2=O)C(=O)N[C@@H](CCCCN)C(=O)N[C@@H](CC(C)C)C(=O)N[C@@H](Cc2c[nH]c3ccccc23)C(=O)N1)[C@@H](C)CC)C(N)=O [compound 120] | 31 | 
CC[C@H](C)[C@H](NC(=O)[C@@H](NC(=O)[C@H](CCCCN)NC(=O)[C@H](CCCNC(=N)N)NC(=O)[C@@H]1CSSC[C@@H]2NC(=O)[C@H](C)NC(=O)[C@H](CCCNC(=N)N)NC(=O)[C@H](CCCCN)NC(=O)[C@H](CO)NC(=O)[C@H](CC(=O)O)NC(=O)[C@@H]3CSSC[C@H](NC(=O)[C@H](CO)NC(=O)[C@H](CC(C)C)NC(=O)CNC(=O)[C@H](CCC(=O)O)NC(=O)[C@H](CSSC[C@H](NC(=O)[C@@H](N)Cc4ccc(O)cc4)C(=O)N[C@@H](CCC(N)=O)C(=O)N[C@@H](CCCCN)C(=O)N[C@@H](Cc4c[nH]c5ccccc45)C(=O)N[C@@H](CCSC)C(=O)N[C@@H](Cc4c[nH]c5ccccc45)C(=O)N[C@@H]([C@@H](C)O)C(=O)N3)NC2=O)C(=O)N[C@@H](CCCCN)C(=O)N[C@@H](CC(C)C)C(=O)N[C@@H](Cc2c[nH]c3ccccc23)C(=O)N1)[C@@H](C)CC)C(N)=O [compound 125] | 17 | 
CC[C@H](C)[C@H](NC(=O)[C@H](CCCCN)NC(=O)[C@H](CCCNC(=N)N)NC(=O)[C@@H]1CSSC[C@@H]2NC(=O)[C@H](C)NC(=O)[C@H](CCCNC(=N)N)NC(=O)[C@H](CCCCN)NC(=O)[C@H](CO)NC(=O)[C@H](CC(=O)O)NC(=O)[C@@H]3CSSC[C@H](NC(=O)[C@H](CCC(=O)O)NC(=O)[C@H](CC(C)C)NC(=O)CNC(=O)[C@H](CCC(=O)O)NC(=O)[C@H](CSSC[C@H](NC(=O)[C@@H](N)Cc4ccc(O)cc4)C(=O)N[C@@H](CCC(N)=O)C(=O)N[C@@H](CCCCN)C(=O)N[C@@H](Cc4c[nH]c5ccccc45)C(=O)N[C@@H](CCSC)C(=O)N[C@@H](Cc4c[nH]c5ccccc45)C(=O)N[C@@H]([C@@H](C)O)C(=O)N3)NC2=O)C(=O)N[C@@H](CCCCN)C(=O)N[C@@H](CC(C)C)C(=O)N[C@@H](Cc2c[nH]c3ccccc23)C(=O)N1)C(=O)N[C@H](C(=O)N[C@@H](Cc1c[nH]c2ccccc12)C(N)=O)[C@@H](C)CC [compound 113] | 30 | 
CC[C@H](C)[C@H](NC(=O)[C@H](CCC(=O)O)NC(=O)[C@H](CCCCN)NC(=O)[C@H](CCCNC(=N)N)NC(=O)[C@@H]1CSSC[C@@H]2NC(=O)[C@H](C)NC(=O)[C@H](CCCNC(=N)N)NC(=O)[C@H](CCCCN)NC(=O)[C@H](CO)NC(=O)[C@H](CC(=O)O)NC(=O)[C@@H]3CSSC[C@H](NC(=O)[C@H](CCC(=O)O)NC(=O)[C@H](CC(C)C)NC(=O)CNC(=O)[C@H](CCC(=O)O)NC(=O)[C@H](CSSC[C@H](NC(=O)[C@@H](N)Cc4ccc(O)cc4)C(=O)N[C@@H](CCC(N)=O)C(=O)N[C@@H](CCCCN)C(=O)N[C@@H](Cc4c[nH]c5ccccc45)C(=O)N[C@@H](CCSC)C(=O)N[C@@H](Cc4c[nH]c5ccccc45)C(=O)N[C@@H]([C@@H](C)O)C(=O)N3)NC2=O)C(=O)N[C@@H](CCCCN)C(=O)N[C@@H](CC(C)C)C(=O)N[C@@H](Cc2c[nH]c3ccccc23)C(=O)N1)C(N)=O [compound 126] | 5 and 3 | 
CC[C@H](C)[C@H](NC(=O)[C@@H](NC(=O)[C@H](CCCCN)NC(=O)[C@H](CCCNC(=N)N)NC(=O)[C@@H]1CSSC[C@@H]2NC(=O)[C@H](C)NC(=O)[C@H](CCCNC(=N)N)NC(=O)[C@H](CCCCN)NC(=O)[C@H](CO)NC(=O)[C@H](CC(=O)O)NC(=O)[C@@H]3CSSC[C@H](NC(=O)[C@H](CC(C)C)NC(=O)[C@H](CC(C)C)NC(=O)CNC(=O)[C@H](CCC(=O)O)NC(=O)[C@H](CSSC[C@H](NC(=O)[C@@H](N)Cc4ccc(O)cc4)C(=O)N[C@@H](CCC(N)=O)C(=O)N[C@@H](CCCCN)C(=O)N[C@@H](Cc4c[nH]c5ccccc45)C(=O)N[C@@H](CCSC)C(=O)N[C@@H](Cc4c[nH]c5ccccc45)C(=O)N[C@@H]([C@@H](C)O)C(=O)N3)NC2=O)C(=O)N[C@@H](CCCCN)C(=O)N[C@@H](CC(C)C)C(=O)N[C@@H](Cc2c[nH]c3ccccc23)C(=O)N1)[C@@H](C)CC)C(N)=O [compound 119] | 14 | 
CC[C@H](C)[C@H](NC(=O)[C@H](Cc1ccc(O)cc1)NC(=O)[C@H](CCCCN)NC(=O)[C@H](CCCNC(=N)N)NC(=O)[C@@H]1CSSC[C@@H]2NC(=O)[C@H](C)NC(=O)[C@H](CCCNC(=N)N)NC(=O)[C@H](CCCCN)NC(=O)[C@H](CO)NC(=O)[C@H](CC(=O)O)NC(=O)[C@@H]3CSSC[C@H](NC(=O)[C@H](CCC(=O)O)NC(=O)[C@H](CC(C)C)NC(=O)CNC(=O)[C@H](CCC(=O)O)NC(=O)[C@H](CSSC[C@H](NC(=O)[C@@H](N)Cc4ccc(O)cc4)C(=O)N[C@@H](CCC(N)=O)C(=O)N[C@@H](CCCCN)C(=O)N[C@@H](Cc4c[nH]c5ccccc45)C(=O)N[C@@H](CCSC)C(=O)N[C@@H](CC(N)=O)C(=O)N[C@@H]([C@@H](C)O)C(=O)N3)NC2=O)C(=O)N[C@@H](CCCCN)C(=O)N[C@@H](CC(C)C)C(=O)N[C@@H](Cc2c[nH]c3ccccc23)C(=O)N1)C(N)=O [compound 215] |  | Nav1.4/Nav1.7 ([1]; Table 8): 1
CC[C@H](C)[C@H](NC(=O)[C@@H](NC(=O)[C@H](CCCCN)NC(=O)[C@H](CCCNC(=N)N)NC(=O)[C@@H]1CSSC[C@@H]2NC(=O)[C@H](C)NC(=O)[C@H](CCCNC(=N)N)NC(=O)[C@H](CCCCN)NC(=O)[C@H](CO)NC(=O)[C@H](CC(=O)O)NC(=O)[C@@H]3CSSC[C@H](NC(=O)[C@H](CCCNC(=N)N)NC(=O)[C@H](CC(C)C)NC(=O)CNC(=O)[C@H](CCC(=O)O)NC(=O)[C@H](CSSC[C@H](NC(=O)[C@@H](N)Cc4ccc(O)cc4)C(=O)N[C@@H](CCC(N)=O)C(=O)N[C@@H](CCCCN)C(=O)N[C@@H](Cc4c[nH]c5ccccc45)C(=O)N[C@@H](CCSC)C(=O)N[C@@H](Cc4c[nH]c5ccccc45)C(=O)N[C@@H]([C@@H](C)O)C(=O)N3)NC2=O)C(=O)N[C@@H](CCCCN)C(=O)N[C@@H](Cc2cccc3ccccc23)C(=O)N[C@@H](Cc2c[nH]c3ccccc23)C(=O)N1)[C@@H](C)CC)C(N)=O [compound 42] |  | Nav1.4/Nav1.7 ([2]; Table 6): 3
CC[C@H](C)[C@H](NC(=O)[C@@H](NC(=O)[C@H](CCCCN)NC(=O)[C@H](CCCNC(=N)N)NC(=O)[C@@H]1CSSC[C@@H]2NC(=O)[C@H](C)NC(=O)[C@H](CCCNC(=N)N)NC(=O)[C@H](CCCCN)NC(=O)[C@H](CO)NC(=O)[C@H](CC(=O)O)NC(=O)[C@@H]3CSSC[C@H](NC(=O)[C@H](CCC(=O)O)NC(=O)[C@H](CC(C)C)NC(=O)CNC(=O)[C@H](CCC(=O)O)NC(=O)[C@H](CSSC[C@H](NC(=O)[C@@H](N)Cc4cn(CCCOCCOCCOCCOCCOCCOCCOCCOCCOCCOCCN)nn4)C(=O)N[C@@H](CCC(N)=O)C(=O)N[C@@H](CCCCN)C(=O)N[C@@H](Cc4c[nH]c5ccccc45)C(=O)N[C@@H](CCSC)C(=O)N[C@@H](Cc4c[nH]c5ccccc45)C(=O)N[C@@H]([C@@H](C)O)C(=O)N3)NC2=O)C(=O)N[C@@H](CCCCN)C(=O)N[C@@H](CC(C)C)C(=O)N[C@@H](Cc2c[nH]c3ccccc23)C(=O)N1)[C@@H](C)CC)C(N)=O [compound 165] |  | Nav1.4/Nav1.7 ([2]; Table 9): 28
